Test results: ChEMBL document CHEMBL1128455, “Ribose-modified adenosine analogues as potential partial agonists for the adenosine receptor” (J Med Chem, 1995)

What was measured:
[1] = molecular target: T1, Adenosine receptor A1 (Rattus norvegicus, UniProt P25099)
T1 sequence (P25099 whole entry): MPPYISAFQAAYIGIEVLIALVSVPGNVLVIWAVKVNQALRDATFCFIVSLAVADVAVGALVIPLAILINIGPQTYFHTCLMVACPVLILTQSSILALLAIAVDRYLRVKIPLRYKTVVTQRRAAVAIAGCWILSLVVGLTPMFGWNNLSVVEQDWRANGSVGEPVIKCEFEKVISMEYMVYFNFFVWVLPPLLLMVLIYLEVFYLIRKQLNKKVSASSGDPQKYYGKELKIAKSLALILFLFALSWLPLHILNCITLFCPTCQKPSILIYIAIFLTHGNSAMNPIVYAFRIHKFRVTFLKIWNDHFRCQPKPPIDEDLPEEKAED
Description: Affinity for the Adenosine A1 receptor in the absence of GTP (A1-GTP) by using [3H]DPCPX as radioligand

[2] = organism: Rattus norvegicus; experiment: GTP shift was determined in rat; type: functional
[3] = molecular target: Adenosine receptor A2a (Rattus norvegicus, UniProt P30543); experiment: Binding affinity against Adenosine A2A receptor by using [3H]CGS-21680 as radioligand
Adenosine receptor A2a, sequence (P30543 whole entry): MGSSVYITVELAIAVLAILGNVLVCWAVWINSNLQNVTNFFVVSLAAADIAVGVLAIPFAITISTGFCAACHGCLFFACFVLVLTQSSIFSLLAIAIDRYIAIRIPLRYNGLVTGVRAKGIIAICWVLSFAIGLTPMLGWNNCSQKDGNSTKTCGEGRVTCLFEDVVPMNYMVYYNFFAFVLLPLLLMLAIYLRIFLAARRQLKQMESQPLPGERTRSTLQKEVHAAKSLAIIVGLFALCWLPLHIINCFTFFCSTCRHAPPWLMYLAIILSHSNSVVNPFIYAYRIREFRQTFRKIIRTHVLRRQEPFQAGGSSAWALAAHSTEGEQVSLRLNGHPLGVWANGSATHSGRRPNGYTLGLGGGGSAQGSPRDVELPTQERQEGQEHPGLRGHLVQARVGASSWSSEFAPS

[4] = molecular target: T1, Adenosine receptor A1; remark: listed apart in the source
Description: Affinity for the Adenosine A1 receptor in the presence of GTP (A1+GTP) by using [3H]-DPCPX as radioligand

Row | Structure (SMILES) | Ki [1] [µM] | GTP shift [2] | Ki [3] [µM] | Ki [4] [µM] | % radioligand bound [3] [%]
1 | C[C@@H](Cc1ccccc1)Nc1ncnc2c1ncn2[C@@H]1O[C@H](CO)C[C@H]1O | 8.26 | 2.1 | 57.2 | 17.5 | 
2 | OC[C@H]1O[C@@H](n2cnc3c(NC4CCCC4)ncnc32)C[C@@H]1O | 1.87 | 4.1 |  | 7.6 | 88
3 | C[C@H](Cc1ccccc1)Nc1ncnc2c1ncn2C1CC(O)C(CO)O1 (stereo partly specified) | 8.45 | 1.7 |  | 14.4 | 86
4 | C[C@@H](Cc1ccccc1)Nc1ncnc2c1ncn2C1CC(O)C(CO)O1 (stereo partly specified) |  |  |  |  | 91
5 | C[C@H](Cc1ccccc1)Nc1ncnc2c1ncn2C1O[C@H](C)[C@@H](O)[C@H]1O (stereo partly specified) | 0.3 | 3.6 | 3.67 | 1.07 | 
6 | Nc1ncnc2c1ncn2[C@@H]1O[C@H](CO)C[C@H]1O [CORDYCEPIN] |  | 2.1 |  |  | 
7 | Cn1cnc2c(N)ncnc21 | 12.5 | 1.2 | 8.6 | 14.7 | 
8 | OC[C@H]1O[C@@H](n2cnc3c(NC4CCCC4)ncnc32)[C@H](O)[C@@H]1O [N6-CYCLOPENTYLADENOSINE] |  |  | 0.58 |  | 
9 | OC[C@H]1O[C@@H](n2cnc3c(NC4CCCCC4)ncnc32)C[C@@H]1O | 8.94 | 2.6 |  | 22.8 | 90
10 | C[C@H]1O[C@@H](n2cnc3c(N)ncnc32)[C@H](O)[C@@H]1O [5'-Deoxyadenosine] | 1.82 | 6.6 |  | 12.1 | 
11 | OC[C@@H]1C[C@@H](O)[C@H](n2cnc3c(NC4CCCCC4)ncnc32)O1 | 0.31 | 4.1 | 22.1 | 1.26 | 
12 | OC[C@@H]1C[C@@H](O)[C@H](n2cnc3c(NC4CCCC4)ncnc32)O1 | 0.11 | 4.3 | 18.6 | 0.47 | 
13 | C[C@H]1OC(n2cnc3c(NC4CCCC4)ncnc32)[C@H](O)[C@@H]1O (stereo partly specified) | 0.07 | 6.4 | 10.1 | 0.45 | 
14 | C[C@H](Cc1ccccc1)Nc1ncnc2c1ncn2[C@@H]1O[C@H](CO)C[C@H]1O | 0.35 | 2.9 | 7.36 | 1.01 | 
